In patent US20230158084A1, “PROBIOTICS, METABOLITES, AND USES THEREOF” (California Institute of Technology, priority 2018, published 2023):
“Also recorded” adds a separate entry of the source.

Key:
Format in all cases: in vivo, mouse
[1] = tested on: BTBR mice; assay: Direct social interaction (DSI) test, BTBR mice given metabolites; conditions: BTBR offspring; 10 mM in drinking water before mating and throughout lifetime (prenatal administration); vs untreated vehicle controls
Experimental: FIGS. 5A-D are a series of drawings illustrating that differential metabolites impact ASD-relevant behaviors in SPF mice in accordance with some embodiments herein. FIG. 5A: The abundance of select metabolites in the offspring microbiome is correlated with behavior of male offspring. Spearman correlation between the microbiome and mouse behavior, by donor (See FIGS. 1A-0). […] Color scale denotes Spearman ρ. […] Groups of mice were orally administered 10 mM Taurine or 5AV in drinking water before mating, and throughout their lifetime. Offspring were tested by marble burying, direct social interaction, and open field tests, and compared to untreated vehicle controls. […] Social Behavior (SI)-direct social interaction (DSI) test-As a more sensitive measure for sociability, the direct social interaction test was also used, where a mouse is allowed to interact with a stimulus mouse while the interaction is being recorded. Each mouse was introduced to a fresh empty cage and allowed to habituate for 10 minutes; grooming behavior was scored for the last five minutes of this period. […] A blinded observer scored videos for any social approach, aggression, or grooming behavior […] using the ETHOM software (Shih and Mok, 2000). […] As such, it will be appreciated that at a given stage of development, some molecules may readily pass through the blood brain barrier, while others may not.

[2] = tested on: lncRNAs and ASD-relevant isoforms in the STR and PFC of BTBR mice; assay: qPCR of BTBR brains after 5AV and taurine administration; conditions: adult metabolite-treated BTBR mice
From the text: FIGS. 5A-D are a series of drawings illustrating that differential metabolites impact ASD-relevant behaviors in SPF mice in accordance with some embodiments herein. FIG. 5A: The abundance of select metabolites in the offspring microbiome is correlated with behavior of male offspring. Spearman correlation between the microbiome and mouse behavior, by donor (See FIGS. 1A-0). Benjamini-Hochberg adjusted p-values (α≤0.05) for significant correlations are noted. Color scale denotes Spearman ρ. […] Groups of mice were orally administered 10 mM Taurine or 5AV in drinking water before mating, and throughout their lifetime. Offspring were tested by marble burying, direct social interaction, and open field tests, and compared to untreated vehicle controls. Results are aggregated from 2 independent experiments. NControl=42, N5AV=52, NTaurine=36. Bar plots denote mean and S.E.M. Hypothesis on differences in means were tested by ANOVA on trimmed means (10%) and subsequent posthoc tests. FIGS. 5E-L: qPCR of BTBR brains after 5AV and taurine administration. Results are aggregated from 2 independent experiments. Hypothesis on differences in means were tested by ANOVA on trimmed means (10%) and subsequent posthoc tests. FIGS. 5M-V: series of graphs illustrating E18 B6 feeding 5AV and Taurine targeted metabolomics.
In view of the results described herein, it was further hypothesized that 5AV and taurine exert their effects on behavioral outcomes by altering expression patterns in the brain. To address this hypothesis, brains were collected from adult metabolite-treated BTBR mice and relative expression was quantified for select genes and isoforms that are differentially expressed between TD- and ASD-colonized offspring (FIGS. 3A-J). […] To test whether the expression of splice variants containing exons highlighted by rMATs analysis (see FIG. 3B, Tables 2.1-2.3), isoforms of interest were identified, which contain or exclude exons implicated by the analysis. […] Therefore, treatment with 5AV and taurine according to some embodiments affects the expression of lncRNAs and of specific ASD-relevant isoforms in the brains of BTBR mice treated throughout their lives.

[3] = tested on: BTBR mice; assay: Open field testing (OFT), BTBR mice given metabolites; conditions: BTBR offspring; 10 mM in drinking water before mating and throughout lifetime (prenatal administration); vs untreated vehicle controls
Experimental: FIGS. 5A-D are a series of drawings illustrating that differential metabolites impact ASD-relevant behaviors in SPF mice in accordance with some embodiments herein. FIG. 5A: The abundance of select metabolites in the offspring microbiome is correlated with behavior of male offspring. Spearman correlation between the microbiome and mouse behavior, by donor (See FIGS. 1A-0). […] Color scale denotes Spearman ρ. […] Groups of mice were orally administered 10 mM Taurine or 5AV in drinking water before mating, and throughout their lifetime. Offspring were tested by marble burying, direct social interaction, and open field tests, and compared to untreated vehicle controls. Results are aggregated from 2 independent experiments. NControl=42, […]=52, NTaurine=36. […] Open field testing (OFT)-OFT, as a measure for locomotion and anxiety, was performed in 50×50 cm^2 white plexiglas arenas, recorded using an overhead camera, and tracked and analyzed using the EthoVision XT 10 software package (Noldus Information Technology). […] The distance traveled, as well as the number of entries and time spend in a 30×30 cm^2 center square, were analyzed by the EthoVision software. […] As such, it will be appreciated that at a given stage of development, some molecules may readily pass through the blood brain barrier, while others may not.

SMILES | sociability / social duration (direct social interaction) [1] | expression of isoforms of Tip12 and Pogz [2] | expression of the lncRNAs Gm17259 and Gm13016 in the STR ([2]; striatum) | expression of transcripts of Neurexin 1 in the STR ([2]; striatum) | anxiety, as measured by center duration in the OFT [3] | expression of isoforms containing a A3SS event in Gigyf2 [2]
NCCCCC(=O)O [5AV, 5-Aminovaleric acid] | increases sociability | marginal effects | increased | increased in expression |  | 
NCCS(=O)(=O)O [taurine] | trend toward increasing social duration in all mice; also recorded: increases sociability |  | increased |  | reduces anxiety | increases the expression
